Results taken from patent publication US6884814B2, “Phenyl benzisoxazoles as estrogenic agents” (Wyeth, priority 2001, dated 2005).

What was measured:
[1] = target: T1, human ERα (Homo sapiens, UniProt P03372); assay: Radioligand binding competition with [3H]-17β-estradiol, ERα; conditions: human ERα ligand binding domain, E. coli lysate, read-out: ER-α IC50
T1 construct: amino acids M250-V595 of human ERα; His (N); made in house; host or cells: E. coli BL21(DE3), clarified lysate
T1 sequence (P03372 250-595): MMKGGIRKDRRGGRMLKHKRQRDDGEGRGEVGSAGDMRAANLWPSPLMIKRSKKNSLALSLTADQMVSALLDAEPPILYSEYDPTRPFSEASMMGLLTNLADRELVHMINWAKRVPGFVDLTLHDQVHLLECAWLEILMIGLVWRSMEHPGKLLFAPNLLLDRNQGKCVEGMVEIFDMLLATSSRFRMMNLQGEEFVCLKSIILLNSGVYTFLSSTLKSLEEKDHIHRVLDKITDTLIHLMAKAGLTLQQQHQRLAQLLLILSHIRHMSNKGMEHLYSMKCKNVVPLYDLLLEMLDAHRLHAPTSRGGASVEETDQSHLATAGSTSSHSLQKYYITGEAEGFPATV

[2] = target: T2, human ERβ (Homo sapiens, UniProt Q92731); assay: Radioligand binding competition with [3H]-17β-estradiol, ERβ; conditions: human ERβ ligand binding domain, E. coli lysate, read-out: ER-β IC50
T2 construct: M214-Q530 of human ERβ; Flag (C); made in house; host or cells: E. coli BL21(DE3), clarified lysate
T2 sequence (Q92731 214-530): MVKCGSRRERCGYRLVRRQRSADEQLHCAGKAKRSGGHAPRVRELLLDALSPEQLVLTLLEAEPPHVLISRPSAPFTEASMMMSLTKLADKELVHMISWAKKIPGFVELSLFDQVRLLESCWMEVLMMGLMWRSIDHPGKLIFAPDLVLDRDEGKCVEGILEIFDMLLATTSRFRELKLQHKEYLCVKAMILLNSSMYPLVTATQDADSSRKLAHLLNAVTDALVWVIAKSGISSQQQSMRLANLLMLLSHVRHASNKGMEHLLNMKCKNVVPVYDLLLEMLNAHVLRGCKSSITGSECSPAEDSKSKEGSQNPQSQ

Row | IC50 [1] [nM] | IC50 [2] [nM] | melting point [°C] | Structure (SMILES)
1 | 38 | 20 | – | CCCc1cc(-c2noc3cc(O)ccc23)c(CC(C)C)cc1O [Example 4, 3-(4-Hydroxy-2-isobutyl-5-propylphenyl)-1,2-benzisoxazol-6-ol]
2 | 5000 | – | – | Oc1ccc2c(-c3ccccc3O)noc2c1 [Example 9, 3-(2-Hydroxyphenyl)-1,2-benzisoxazol-6-ol]
3 | 3000 | 254 | 215 to 217 | Oc1ccc(O)c(-c2noc3cc(O)ccc23)c1 [Example 10, 2-(6-Hydroxy-1,2-benzisoxazol-3-yl)benzene-1,4-diol]
4 | 2000 | 208 | 267 to 270 | Oc1ccc(-c2noc3c(Br)cc(O)cc23)cc1 [Example 13, 7-Bromo-3-(4-hydroxyphenyl)-1,2-benzisoxazol-5-ol]
